SMILES strings stand for the structures. Where two headings read alike, the source gives them in different places. Positions of bridges follow the written chain, without caps; N, C: chain ends. Non-standard residues stand in square brackets, D forms with d. Residues, ends and D or L forms follow the SMILES beside them. *: point of attachment. NMeF = CN[C@@H](Cc1ccccc1)C(=O)O; NMeI = CC[C@H](C)[C@H](NC)C(=O)O; NMeL = CN[C@@H](CC(C)C)C(=O)O; NMeV = CN[C@H](C(=O)O)C(C)C; NMeA = CN[C@@H](C)C(=O)O; Piperidide = C1CCN(*)CC1; Sar = CNCC(=O)O; tBu = CC(C)(C)*

The series is described as follows: Metabolic stability in human hepatic microsome. Format: in vitro ADME. As to conditions: for microsomal CLint at 1 uM: human.
[1] abbreviates: microsomes, pH 7.4, Hepatic microsome CLhint (Human) In the presence of NADPH.
The mark [2] stands for this setting: microsomes, pH 7.4, CL NADPH(+).

For orientation: microsomal CLint means the rate of metabolic loss divided by the concentration. Consider `CC(C)C[C@H]1C(=O)N[C@@H](COC(C)(C)C)C(=O)N[C@H](C(=O)N2CCCCC2)CC(=O)N[C@@H](C)C(=O)N(C)[C@@H](C)C(=O)N(C)[C@@H](Cc2ccccc2)C(=O)N(C)[C@@H](CC(C)C)C(=O)N[C@@H]([C@@H](C)O)C(=O)N(C)CC(=O)N1C` [Compound P-119, Ala-MeAla-MePhe-MeLeu-Thr-MeGly-MeLeu-Ser(tBu)-Asp-piperidine] (A[NMeA][NMeF][NMeL]T[Sar][NMeL]S(tBu)D-Piperidide; lactam N-9), for which the “Hepatic microsome CLhint (Human) In the absence of NADPH” value is on record as 5 ul/min/mg Protein. In addition, the microsomal CLint at 1 uM under setting [1] stood at 56 µL/min/mg.
Consider `CC(C)C[C@H]1C(=O)N[C@@H](COC(C)(C)C)C(=O)N[C@H](C(=O)N2CCCCC2)CC(=O)N(C)[C@@H](C)C(=O)N(C)[C@@H](C)C(=O)N(C)[C@@H](Cc2ccccc2)C(=O)N(C)[C@@H](CC(C)C)C(=O)N[C@@H]([C@@H](C)O)C(=O)N(C)CC(=O)N1C` [Compound P-120, MeAla-MeAla-MePhe-MeLeu-Thr-MeGly-MeLeu-Ser(tBu)-Asp-piperidine] ([NMeA][NMeA][NMeF][NMeL]T[Sar][NMeL]S(tBu)D-Piperidide; lactam N-9), for which the “Hepatic microsome CLhint (Human) In the absence of NADPH” value was 5 ul/min/mg Protein.
`CC(C)C[C@H]1C(=O)N[C@@H](COC(C)(C)C)C(=O)N[C@H](C(=O)N2CCCCC2)CCC(=O)N[C@@H](C)C(=O)N(C)[C@@H](C)C(=O)N(C)[C@@H](Cc2ccccc2)C(=O)N(C)[C@@H](CC(C)C)C(=O)N[C@@H]([C@@H](C)O)C(=O)N(C)CC(=O)N1C` [Compound P-121, Ala-MeAla-MePhe-MeLeu-Thr-MeGly-MeLeu-Ser(tBu)-Glu-piperidine] (A[NMeA][NMeF][NMeL]T[Sar][NMeL]S(tBu)E-Piperidide; lactam N-9): the “Hepatic microsome CLhint (Human) In the absence of NADPH” value is 8 ul/min/mg Protein and the “Hepatic microsome CLhint (Human) In the presence of NADPH” value was found to be 69 ul/min/mg Protein. For the same compound, the microsomal CLint at 1 uM (liver microsomes, pH 7.4, Hepatic microsome CLhint (Human) In the presence of NADPH) was determined as 29 µL/min/mg.
With `CC(C)C[C@H]1C(=O)N[C@@H](COC(C)(C)C)C(=O)N[C@H](C(=O)N2CCCCC2)CCC(=O)N(C)[C@@H](C)C(=O)N(C)[C@@H](C)C(=O)N(C)[C@@H](Cc2ccccc2)C(=O)N(C)[C@@H](CC(C)C)C(=O)N[C@@H]([C@@H](C)O)C(=O)N(C)CC(=O)N1C` [Compound P-122, MeAla-MeAla-MePhe-MeLeu-Thr-MeGly-MeLeu-Ser(tBu)-Glu-piperidine] ([NMeA][NMeA][NMeF][NMeL]T[Sar][NMeL]S(tBu)E-Piperidide; lactam N-9), the “Hepatic microsome CLhint (Human) In the absence of NADPH” value is 1 ul/min/mg Protein. Under setting [1], the intrinsic clearance (microsomal CLint) at 1 uM was 11 µL/min/mg.
On to `CC[C@H](C)[C@H]1C(=O)N[C@H](C(=O)N2CCCCC2)CC(=O)N[C@@H](C)C(=O)N(C)[C@@H](Cc2ccccc2)C(=O)N(C)[C@@H](CC(C)C)C(=O)N[C@@H]([C@@H](C)O)C(=O)N(C)CC(=O)N(C)[C@@H](CC(C)C)C(=O)N[C@@H](COC(C)(C)C)C(=O)N1C` [Compound P-123, Ala-MePhe-MeLeu-Thr-MeGly-MeLeu-Ser(tBu)-MeIle-Asp-piperidine] (A[NMeF][NMeL]T[Sar][NMeL]S(tBu)[NMeI]D-Piperidide; lactam N-9), for which the “Hepatic microsome CLhint (Human) In the absence of NADPH” value was 0 ul/min/mg Protein. Moreover, the microsomal CLint at 1 uM under setting [1] worked out at 106 µL/min/mg.
In the case of `CC[C@H](C)[C@H]1C(=O)N[C@H](C(=O)N2CCCCC2)CC(=O)N[C@@H](C)C(=O)N(C)[C@@H](C)C(=O)N(C)[C@@H](Cc2ccccc2)C(=O)N(C)[C@@H](CC(C)C)C(=O)N[C@@H]([C@@H](C)O)C(=O)N(C)CC(=O)N(C)[C@@H](CC(C)C)C(=O)N[C@@H](COC(C)(C)C)C(=O)N1C` [Compound P-125, Ala-MeAla-MePhe-MeLeu-Thr-MeGly-MeLeu-Ser(tBu)-MeIle-Asp-piperidine] (A[NMeA][NMeF][NMeL]T[Sar][NMeL]S(tBu)[NMeI]D-Piperidide; lactam N-10), the “Hepatic microsome CLhint (Human) In the absence of NADPH” value is given as 1 ul/min/mg Protein. In addition, the “Hepatic microsome CLhint (Human) In the presence of NADPH” value (Table 10, with NADPH) came out at 35 ul/min/mg Protein.
With `CC[C@H](C)[C@H]1C(=O)N[C@@H](Cc2ccccc2)C(=O)N(C)[C@@H](Cc2ccccc2)C(=O)N[C@@H]([C@@H](C)O)C(=O)N2CCC[C@H]2C(=O)N[C@@H](CC(C)C)C(=O)N[C@H](C(=O)N2CCCCC2)CC(=O)N[C@@H](C)C(=O)N[C@@H](C(C)C)C(=O)N(C)CC(=O)N[C@@H](CC(C)C)C(=O)N(C)[C@@H](CC(C)C)C(=O)N[C@@H](C)C(=O)N1C` [DP-1] (AV[Sar]L[NMeL]A[NMeI]F[NMeF]TPLD-Piperidide; lactam N-13), the microsomal CLint at 1 uM under setting [2] amounted to 27 µL/min/mg.
Still for that read-out and setting: then `CC[C@H](C)[C@H]1C(=O)N[C@@H](C)C(=O)N(C)[C@@H](Cc2ccccc2)C(=O)N(C)[C@@H](Cc2ccccc2)C(=O)N[C@@H]([C@@H](C)O)C(=O)N(C)[C@@H](CC(C)C)C(=O)N2CCC[C@H]2C(=O)N[C@H](C(=O)N2CCCCC2)CC(=O)N[C@@H](C)C(=O)N[C@@H](C(C)C)C(=O)N(C)[C@@H](CC(C)C)C(=O)N(C)CC(=O)N(C)[C@@H](CC(C)C)C(=O)N1C` [DP-2] (AV[NMeL][Sar][NMeL][NMeI]A[NMeF][NMeF]T[NMeL]PD-Piperidide; lactam N-13), with 7 µL/min/mg.
`CC[C@H](C)[C@H]1C(=O)N[C@@H](C)C(=O)N[C@H](C(=O)N2CCCCC2)CC(=O)N[C@@H](C)C(=O)N[C@@H]([C@@H](C)O)C(=O)N(C)[C@@H](CC(C)C)C(=O)N[C@@H](CC(C)C)C(=O)N[C@@H](Cc2ccccc2)C(=O)N2CCC[C@H]2C(=O)N[C@@H](Cc2ccccc2)C(=O)N[C@@H](C(C)C)C(=O)N(C)CC(=O)N1C` [DP-6] (AT[NMeL]LFPFV[Sar][NMeI]AD-Piperidide; lactam N-12) had a microsomal CLint at 1 uM under setting [2] of 35 µL/min/mg.
On the same count and under the same terms, to `CC[C@H](C)[C@H]1C(=O)N(C)[C@@H](CC(C)C)C(=O)NCC(=O)N(C)[C@@H](C)C(=O)N[C@@H](Cc2ccccc2)C(=O)N[C@@H]([C@@H](C)O)C(=O)N(C)[C@@H](CC(C)C)C(=O)N[C@@H](Cc2ccccc2)C(=O)N(C)[C@@H](C(C)C)C(=O)N[C@H](C(=O)N2CCCCC2)CC(=O)N[C@@H](C)C(=O)N[C@@H](CC(C)C)C(=O)N1C` [DP-8] (AL[NMeI][NMeL]G[NMeA]FT[NMeL]F[NMeV]D-Piperidide; lactam N-12) belongs 36 µL/min/mg.
On the same count and under the same terms, then `CC[C@H](C)[C@@H]1NC(=O)[C@H](C)NC(=O)C[C@@H](C(=O)N2CCCCC2)NC(=O)[C@H](CC(C)C)N(C)C(=O)[C@H](CC(C)C)N(C)C(=O)[C@H](C(C)C)NC(=O)[C@H](C)NC(=O)[C@H](Cc2ccccc2)N(C)C(=O)[C@H](Cc2ccccc2)N(C)C(=O)[C@H]([C@@H](C)O)NC(=O)[C@H](CC(C)C)N(C)C(=O)[C@@H]2CCCN2C1=O` [DP-10] (AIP[NMeL]T[NMeF][NMeF]AV[NMeL][NMeL]D-Piperidide; lactam N-12), with 14 µL/min/mg; and `CC[C@H](C)[C@H]1C(=O)N(C)[C@@H](C)C(=O)N[C@H](C(=O)N2CCCCC2)CC(=O)N[C@@H](C)C(=O)N[C@@H]([C@@H](C)O)C(=O)N(C)[C@@H](Cc2ccccc2)C(=O)N(C)[C@@H](CC(C)C)C(=O)N[C@@H](C(C)C)C(=O)N2CCC[C@H]2C(=O)N(C)[C@@H](Cc2ccccc2)C(=O)N[C@@H](CC(C)C)C(=O)N(C)CC(=O)N1C` [DP-11] (AT[NMeF][NMeL]VP[NMeF]L[Sar][NMeI][NMeA]D-Piperidide; lactam N-12), with 67 µL/min/mg.
On the same count and under the same terms, to `CC[C@H](C)[C@@H]1NC(=O)[C@H](Cc2ccccc2)N(C)C(=O)[C@H](Cc2ccccc2)N(C)C(=O)[C@H](CC(C)C)N(C)C(=O)[C@H](CC(C)C)NC(=O)[C@H](CC(C)C)N(C)C(=O)[C@H](C)N(C)C(=O)[C@H]([C@@H](C)O)NC(=O)[C@H](C)NC(=O)C[C@@H](C(=O)N2CCCCC2)NC(=O)[C@H](C(C)C)N(C)C(=O)[C@@H]2CCCN2C1=O` [DP-12] (AT[NMeA][NMeL]L[NMeL][NMeF][NMeF]IP[NMeV]D-Piperidide; lactam N-12) belongs 32 µL/min/mg; to `CC[C@H](C)[C@@H]1NC(=O)[C@H](C)NC(=O)C[C@@H](C(=O)N2CCCCC2)NC(=O)[C@H](Cc2ccccc2)NC(=O)[C@H](C(C)C)NC(=O)[C@H](CC(C)C)NC(=O)[C@H](C)NC(=O)[C@H](Cc2ccccc2)N(C)C(=O)[C@H]([C@@H](C)O)NC(=O)[C@H](CC(C)C)NC(=O)[C@H](CC(C)C)N(C)C1=O` [DP-13] (AI[NMeL]LT[NMeF]ALVFD-Piperidide; lactam N-11), 66 µL/min/mg.
As to `CC[C@H](C)[C@@H]1NC(=O)[C@H](Cc2ccccc2)N(C)C(=O)[C@H](Cc2ccccc2)NC(=O)[C@H](C(C)C)N(C)C(=O)[C@H](CC(C)C)N(C)C(=O)[C@H](CC(C)C)NC(=O)[C@H](C)NC(=O)C[C@@H](C(=O)N2CCCCC2)NC(=O)[C@H]([C@@H](C)O)NC(=O)CNC(=O)[C@@H]2CCCN2C1=O` [DP-14] (AL[NMeL][NMeV]F[NMeF]IPGTD-Piperidide; lactam N-11), under setting [2], the microsomal CLint at 1 uM was found to be 57 µL/min/mg.
`CC[C@H](C)[C@H]1C(=O)N2CCC[C@H]2C(=O)N(C)CC(=O)N[C@@H]([C@@H](C)O)C(=O)N[C@H](C(=O)N2CCCCC2)CC(=O)N[C@@H](C)C(=O)N[C@@H](C(C)C)C(=O)N(C)[C@@H](CC(C)C)C(=O)N(C)[C@@H](CC(C)C)C(=O)N(C)[C@@H](Cc2ccccc2)C(=O)N[C@@H](Cc2ccccc2)C(=O)N1C` [DP-15] (AV[NMeL][NMeL][NMeF]F[NMeI]P[Sar]TD-Piperidide; lactam N-11) registered a microsomal CLint at 1 uM under setting [2] of 34 µL/min/mg.
The same measure, in the same setting: to `CC[C@H](C)[C@@H]1NC(=O)[C@H](Cc2ccccc2)NC(=O)[C@H](C)NC(=O)C[C@@H](C(=O)N2CCCCC2)NC(=O)[C@H](CC(C)C)NC(=O)[C@H](CC(C)C)NC(=O)[C@H](C(C)C)NC(=O)[C@H](C)N(C)C(=O)[C@H](Cc2ccccc2)NC(=O)CNC(=O)[C@H]([C@@H](C)O)NC(=O)[C@H](CC(C)C)NC(=O)[C@@H]2CCCN2C1=O` [DP-19] (AFIPLTGF[NMeA]VLLD-Piperidide; lactam N-13) belongs 80 µL/min/mg; to `CC[C@H](C)[C@@H]1NC(=O)[C@H](C)NC(=O)[C@H](CC(C)C)N(C)C(=O)[C@H](CC(C)C)NC(=O)[C@H](Cc2ccccc2)NC(=O)[C@H](C(C)C)NC(=O)[C@@H]2CCCN2C(=O)[C@H](CC(C)C)NC(=O)[C@H](Cc2ccccc2)N(C)C(=O)[C@H]([C@@H](C)O)NC(=O)CNC(=O)[C@H](C)NC(=O)C[C@@H](C(=O)N2CCCCC2)NC1=O` [DP-20] (AGT[NMeF]LPVFL[NMeL]AID-Piperidide; lactam N-13), 97 µL/min/mg.
